Like-named read-outs stand apart in the source and are kept apart here.
Assays:
SARS-CoV-2 = experiment: microbe, parasite or virus in culture; type: cell-based
MT4 cytotoxicity (CC50) = details: human, MT4 cells
[1] = tested on: Recombinant Respiratory Syncytial virus strain A2 containing the firefly luciferase reporter (RSV-Fluc); experiment: microbe, parasite or virus in culture; type: cell-based; details: human respiratory syncytial virus, NHBE
[2] = Severe acute respiratory syndrome coronavirus 2, read-out: SARS EC50
[3] = 72 h, read-out: RSV-Fluc EC50 (NHBE), NHBE cells, three days, Table 2

SMILES	EC50 (SARS-CoV-2; [2])	CC50 (MT4 cytotoxicity (CC50); MT4 CC50, Table 2a)	EC50 ([1]; read-out: RSV EC50, Table 2a)	CC50 (MT4 cytotoxicity (CC50); MT4 CC50, Table 4)	EC50 ([1]; read-out: RSV EC50, Table 4)	EC50 [1, 3]	EC50 (SARS-CoV-2; Severe acute respiratory syndrome coronavirus 2, 48 h, read-out: SARS-CoV-2 EC50)	CC50 (MT4 cytotoxicity (CC50); MT4 CC50, Table 1a)	EC50 ([1]; 72 h, read-out: RSV-Fluc EC50 (NHBE), NHBE cells, three days, Table 1)
CCCCCCCCCCCCCCCCCCOC[C@H](COP(=O)(O)OC[C@H]1O[C@@](C#N)(c2ccc3c(N)ncnn23)[C@H](O)[C@@H]1O)OCc1ccc(C#N)c(OC)c1 [Example 54, ((2R,3S,4R,5R)-5-(4-Aminopyrrolo[2,1-f][1,2,4]triazin-7-yl)-5-cyano-3,4-dihydroxytetrahydrofuran-2-yl)methyl ((R)-2-((4-cyano-3-methoxybenzyl)oxy)-3-(octadecyloxy)propyl) hydrogen phosphate]	1630 nM	289 nM	19 nM	–	–	–	–	–	–
CCCCCCCCCCCCCCCCCCOC[C@H](COP(=O)(O)OC[C@H]1O[C@@](C#N)(c2ccc3c(N)ncnn23)[C@H](O)[C@@H]1O)OCc1ccc(C#N)cc1Cl [Example 103, [(2R,3S,4R,5R)-5-(4-Aminopyrrolo[2,1-f][1,2,4]triazin-7-yl)-5-cyano-3,4-dihydroxy-tetrahydrofuran-2-yl]methyl [(2R)-2-[(2-chloro-4-cyano-phenyl)methoxy]-3-octadecoxy-propyl] hydrogen phosphate]	10000 nM	–	–	50000 nM	387 nM	–	–	–	–
CCCCCCCCCCCCCCCCCCOC[C@H](COP(=O)(O)OC[C@H]1O[C@@](C#N)(c2ccc3c(N)ncnn23)[C@H](O)[C@@H]1O)OCc1ccc(OC)c(Cl)c1 [Example 49, ((2R,3S,4R,5R)-5-(4-aminopyrrolo[2,1-f][1,2,4]triazin-7-yl)-5-cyano-3,4-dihydroxytetrahydrofuran-2-yl)methyl ((R)-2-((3-chloro-4-methoxybenzyl)oxy)-3-(octadecyloxy)propyl) hydrogen phosphate]	3350 nM	951 nM	232 nM	–	–	230 nM	–	–	–
CCCCCCCCCCCCCCCCCCOC[C@H](COP(=O)(O)OC[C@H]1O[C@@](C#N)(c2ccc3c(N)ncnn23)[C@H](O)[C@@H]1O)OCc1ccc(C#N)cn1 [Example 124, [(2R,3S,4R,5R)-5-(4-Aminopyrrolo[2,1-f][1,2,4]triazin-7-yl)-5-cyano-3,4-dihydroxy-tetrahydrofuran-2-yl]methyl [(2R)-2-[(5-cyano-2-pyridyl)methoxy]-3-octadecoxy-propyl] hydrogen phosphate]	200 nM	–	–	703 nM	27 nM	–	–	–	–
CCCCCCCC/C=C/CCCCCCCCOC[C@H](COP(=O)(O)OC[C@H]1O[C@@](C#N)(c2ccc3c(N)ncnn23)[C@H](O)[C@@H]1O)OCc1ccccc1 [Example 131, ((2R,3S,4R,5R)-5-(4-aminopyrrolo[2,1-f][1,2,4]triazin-7-yl)-5-cyano-3,4-dihydroxytetrahydrofuran-2-yl)methyl ((R)-2-(benzyloxy)-3-(((E)-octadec-9-en-1-yl)oxy)propyl) hydrogen phosphate]	110 nM	–	–	3390 nM	39 nM	–	–	–	–
CCCCCCCCCCCCCCCCCCOC[C@H](COP(=O)(O)OC[C@H]1O[C@@](C#N)(c2ccc3c(N)ncnn23)[C@H](O)[C@@H]1O)Oc1ccccc1C#N [Example 73, ((2R,3S,4R,5R)-5-(4-aminopyrrolo[2,1-f][1,2,4]triazin-7-yl)-5-cyano-3,4-dihydroxytetrahydrofuran-2-yl)methyl ((R)-2-(2-cyanophenoxy)-3-(octadecyloxy)propyl) hydrogen phosphate]	150 nM	–	–	1200 nM	107 nM	–	–	–	–
CCCCCCCCCCCCCCCCOC[C@H](COP(=O)(O)OC[C@H]1O[C@@](C#N)(c2ccc3c(N)ncnn23)[C@H](O)[C@@H]1O)OCc1ccc(C#N)cc1 [Example 96, ((2R,3S,4R,5R)-5-(4-aminopyrrolo[2,1-f][1,2,4]triazin-7-yl)-5-cyano-3,4-dihydroxytetrahydrofuran-2-yl)methyl ((R)-2-((4-cyanobenzyl)oxy)-3-(hexadecyloxy)propyl) hydrogen phosphate]	43 nM	–	–	511 nM	23 nM	–	–	–	–
CCCCCCCCCCCCCCCCCCOC[C@H](COP(=O)(O)OC[C@H]1O[C@@](C#N)(c2ccc3c(N)ncnn23)[C@H](O)[C@@H]1O)Oc1ccc(C#N)c(OC)c1 [Example 74, ((2R,3S,4R,5R)-5-(4-aminopyrrolo[2,1-f][1,2,4]triazin-7-yl)-5-cyano-3,4-dihydroxytetrahydrofuran-2-yl)methyl ((R)-2-(4-cyano-3-methoxyphenoxy)-3-(octadecyloxy)propyl) hydrogen phosphate]	31 nM	–	–	196 nM	10 nM	–	–	–	–
CCCCCCCCCCCCCCCCCOC[C@H](COP(=O)(O)OC[C@H]1O[C@@](C#N)(c2ccc3c(N)ncnn23)[C@H](O)[C@@H]1O)OCc1ccc(C#N)cc1 [Example 36, ((2R,3S,4R,5R)-5-(4-aminopyrrolo[2,1-f][1,2,4]triazin-7-yl)-5-cyano-3,4-dihydroxytetrahydrofuran-2-yl)methyl ((R)-2-((4-cyanobenzyl)oxy)-3-(heptadecyloxy)propyl) hydrogen phosphate]	404 nM	530 nM	17 nM	–	–	–	–	–	–
CC(C)CCCCCCCCCCCCCCOC[C@H](COP(=O)(O)OC[C@H]1O[C@@](C#N)(c2ccc3c(N)ncnn23)[C@H](O)[C@@H]1O)OCc1ccccc1 [Example 24, ((2R,3S,4R,5R)-5-(4-aminopyrrolo[2,1-f][1,2,4]triazin-7-yl)-5-cyano-3,4-dihydroxytetrahydrofuran-2-yl)methyl ((R)-2-(benzyloxy)-3-((15-methylhexadecyl)oxy)propyl) hydrogen phosphate]	3320 nM	2200 nM	42 nM	–	–	42 nM	–	–	–
CCCCCCCCCCCCCCCCCCOC[C@H](COP(=O)(O)OC[C@H]1O[C@@](C#N)(c2ccc3c(N)ncnn23)[C@H](O)[C@@H]1O)OCc1ccc(C#N)c(F)c1 [Example 67, ((2R,3S,4R,5R)-5-(4-aminopyrrolo[2,1-f][1,2,4]triazin-7-yl)-5-cyano-3,4-dihydroxytetrahydrofuran-2-yl)methyl ((R)-2-((4-cyano-3-fluorobenzyl)oxy)-3-(octadecyloxy)propyl) hydrogen phosphate]	229 nM	744 nM	19 nM	–	–	7.6 nM	–	–	–
CCCCCCCCCCCCCCCCCCOC[C@H](COP(=O)(O)OC[C@H]1O[C@@](C#N)(c2ccc3c(N)ncnn23)[C@H](O)[C@@H]1O)OCc1ccc(F)c(Cl)c1 [Example 17]	–	–	–	–	–	–	690 nM	2100 nM	20 nM
CCCCCCCCCCCCCCCCCCOC[C@H](COP(=O)(O)OC[C@H]1O[C@@](C#N)(c2ccc3c(N)ncnn23)[C@H](O)[C@@H]1O)OCc1cccc(C#N)c1 [Example 39, ((2R,3S,4R,5R)-5-(4-aminopyrrolo[2,1-f][1,2,4]triazin-7-yl)-5-cyano-3,4-dihydroxytetrahydrofuran-2-yl)methyl ((R)-2-((3-cyanobenzyl)oxy)-3-(octadecyloxy)propyl) hydrogen phosphate]	284 nM	348 nM	27 nM	–	–	27 nM	–	–	–
CCCCCCCCCCCCCCCCCCOC[C@](C)(COP(=O)(O)OC[C@H]1O[C@@](C#N)(c2ccc3c(N)ncnn23)[C@H](O)[C@@H]1O)OCc1ccccc1 [Example 21, ((2R,3S,4R,5R)-5-(4-aminopyrrolo[2,1-f][1,2,4]triazin-7-yl)-5-cyano-3,4-dihydroxytetrahydrofuran-2-yl)methyl ((R)-2-(benzyloxy)-2-methyl-3-(octadecyloxy)propyl) hydrogen phosphate]	1740 nM	50000 nM	77 nM	–	–	76 nM	–	–	–
CCCCCCCCCCCCCCCCCCOC[C@H](COP(=O)(O)OC[C@H]1O[C@@](C#N)(c2ccc3c(N)ncnn23)[C@H](O)[C@@H]1O)OCc1cnc(C(F)(F)F)nc1 [Example 122, [(2R,3S,4R,5R)-5-(4-Aminopyrrolo[2,1-f][1,2,4]triazin-7-yl)-5-cyano-3,4-dihydroxy-tetrahydrofuran-2-yl]methyl [(2R)-3-octadecoxy-2-[[2-(trifluoromethyl)pyrimidin-5-yl]methoxy]propyl] hydrogen phosphate]	450 nM	–	–	995 nM	39 nM	–	–	–	–
CCCCCCCC/C=C\CCCCCCCCOC[C@H](COP(=O)(O)OC[C@H]1O[C@@](C#N)(c2ccc3c(N)ncnn23)[C@H](O)[C@@H]1O)OCc1ccc(C#N)cc1F [Example 129, ((2R,3S,4R,5R)-5-(4-aminopyrrolo[2,1-f][1,2,4]triazin-7-yl)-5-cyano-3,4-dihydroxytetrahydrofuran-2-yl)methyl ((R)-2-((4-cyano-2-fluorobenzyl)oxy)-3-(((Z)-octadec-9-en-1-yl)oxy)propyl) hydrogen phosphate]	110 nM	–	–	2430 nM	22 nM	–	–	–	–
CCCCCCCCCCCCCCCCCCOC[C@H](COP(=O)(O)OC[C@H]1O[C@@](C#N)(c2ccc3c(N)ncnn23)[C@H](O)[C@@H]1O)OCc1cc(C#N)ccc1OC [Example 104, [(2R,3S,4R,5R)-5-(4-Aminopyrrolo[2,1-f][1,2,4]triazin-7-yl)-5-cyano-3,4-dihydroxy-tetrahydrofuran-2-yl]methyl [(2R)-2-[(5-cyano-2-methoxy-phenyl)methoxy]-3-octadecoxy-propyl] hydrogen phosphate]	1300 nM	–	–	2550 nM	222 nM	–	–	–	–
CCCCCCCCCCCCCCCCCCOC[C@H](COP(=O)(O)OC[C@H]1O[C@@](C#N)(c2ccc3c(N)ncnn23)[C@H](O)[C@@H]1O)OC [Example 44, ((2R,3S,4R,5R)-5-(4-aminopyrrolo[2,1-f][1,2,4]triazin-7-yl)-5-cyano-3,4-dihydroxytetrahydrofuran-2-yl)methyl ((R)-2-methoxy-3-(octadecyloxy)propyl) hydrogen phosphate]	917 nM	4000 nM	53 nM	–	–	53 nM	–	–	–

Reference: patent US12030904B2 (priority 2020, dated 2024)
